In US20260174839A1, “PN[…] OTHER VACCINES P[…] SAPONIN ADJUVANT” (priority 2022, published 2026):

Columns and labels:
Assay type in all cases: in vivo
[1] = system: Streptococcus pneumoniae serotype 3; experiment: Opsonophagocytosis assay of serum of immunized mice, serotype 3; details: PCV13 plus QS-21 vs PCV13 plus VSA-1
Description: (§1) BALB/c mice used in this study were purchased from the Jackson Laboratory and maintained within an environmentally controlled, pathogen-free animal facility at the University of Alabama at Birmingham (UAB). Each human dose of PCV13 (trade name Prevnar 13 by Pfizer) is available in 0.5 mL single-dose pre-filled syringes. Groups of female BALB/c mice (8-10 weeks of age, six per group) were immunized via the subcutaneous route (s.c.) with saline, PCV 13 (50 μL), PCV13 (50 μL) plus QS-21 (20 μg), or PCV13 (50 μL) plus VSA-1 (100 μg) on days 0, 14 and 28. Serum samples were collected prior to the first immunization and at 2 weeks following the last immunization. Equal volumes of the six sera in each group were pooled together to create serum pools for each group. The serum was obtained after centrifugation and stored at −20° C. until assayed. All studies were performed according to National Institutes of Health guidelines, and protocols were approved by the UAB Institutional Animal Care and Use Committee.
(§2) Opsonophagocytosis assay for serotypes 3, 4, 6B, 9V, 14, 19A, and 19F was performed using a 4-fold multiplexed opsonization assay described in the literature. […] Opsonic indices were determined as the interpolated serum dilution that kills 50% of bacteria. […]

[2] = system: Streptococcus pneumoniae serotype 9V; experiment: Opsonophagocytosis assay of serum of immunized mice, serotype 9V; details: PCV13 plus QS-21 vs PCV13 plus VSA-1
Description: as §1, §2

[3] = system: Streptococcus pneumoniae serotypes 3, 4, 6B, 9V, 14, 19A, and 19F; experiment: Opsonophagocytosis assay, several serotypes together; details: adjuvant added to PCV13 vs PCV13 alone, BALB/c mice
Description: as §1, §2

[4] = system: Streptococcus pneumoniae serotype 14; experiment: Opsonophagocytosis assay of serum of immunized mice, serotype 14; details: adjuvant added to PCV13 vs PCV13 alone; BALB/c mice
Description: as §1, §2

[5] = system: Streptococcus pneumoniae serotype 19F; experiment: Opsonophagocytosis assay of serum of immunized mice, serotype 19F; details: PCV13 plus QS-21 vs PCV13 plus VSA-1
Description: as §1, §2

[6] = system: Streptococcus pneumoniae seven serotypes (3, 4, 6B, 9V, 14, 19A and 19F); experiment: IgG subclass pneumococcal antibody ELISA, seven serotypes together (average, summary); details: adjuvant added to PCV13; BALB/c mice
Description: Four groups of female BALB/c mice (6 per group) were immunized with normal saline, one tenth human dose of PCV13, PCV13+VSA-1, and PCV13-QS21 on days 0, 14 […]. QS21 is another saponin adjuvant. Blood samples were obtained on day 42. IgG subclass of pneumococcal antibodies in the pooled serum samples of each group were determined with pneumococcal antibody ELISA for seven serotypes (3, 4, 6B, 9V, 14, 19A and 19F) using enzyme-conjugated antibodies against mouse IgG1, IgG2a or IgG3.

Substance: QS-21
- opsonic titer, QS-21 superior to VSA-1, serotype 3 [1]: 1.3 fold
- opsonic titer, QS-21 superior to VSA-1, serotype 9V [2]: 2.4 fold
- increase of PCV13-induced opsonic titers [3]: 1.9-4.9 fold
- increase of PCV13-induced opsonic titers, serotype 14 [4]: 14.9 fold
- opsonic titer, QS-21 superior to VSA-1, serotype 19F [5]: 1.2 fold
- IgG1, IgG2a and IgG3 antibodies titers against seven selected serotypes [6]: boosted
